From PubChem BioAssay AID602211 (Sanford-Burnham Center for Chemical Genomics, 2012) come the findings set out here.

Activity calls are given as the source filed them.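 Rule for the calls: active = mean IC50 at or below 10 µM; inactive = the rest.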

The subject of the assay is H9c2 cardiomyocytes, H2O2 protection, ATPLite viability, 2 h. Briefly: protection of H9c2 cardiomyocytes from H2O2 death, dose response, cell-based, ATPLite luminescence, set 2 (AID 602211).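 Note: potency is for protection so actives keep ATP signal up against peroxide killing.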 On the technique in general: ATP-based viability assays read luminescence as a measure of living cells.
The term IC50 denotes the concentration that gives 50% inhibition. In the case of `COc1cc2c(C#CCCCO)c(-c3ccsc3)oc(=O)c2cc1OC`, the IC50 is 2.3 µM.

For the molecule `O=C(Nc1ccccc1)c1nc[nH]c1C(=O)NCCNC(=O)c1[nH]cnc1C(=O)Nc1ccccc1`, the IC50 is 0.668 µM.

Regarding `O=C(NCCN1CCOCC1)c1cnn2c(-c3ccccc3)cc(-c3ccccc3)nc12`, the IC50 is > 79 µM (inactive).

Turning to `CCOc1ccccc1NC(=O)c1oc2ccccc2c1NC(=O)C1CCCO1` (stereo not drawn), the IC50 was 4.13 µM.

Take `Brc1ccc(-c2nn3c(-c4ccccn4)nnc3s2)o1`: the IC50 is 27.4 µM (inactive).

For `CCOC(=O)c1c(C)[nH]c(C)c1C(=O)COc1ncnc2cc([N+](=O)[O-])ccc12`, the IC50 is 11.1 µM (inactive).

As for `CC(C)N1C(=O)S/C(=C/c2ccc3c(c2)n(C)c(=O)n3C)C1=O`, the IC50 is 1.71 µM.

Regarding `COC(=O)c1cc2c(C)c(C)c3ccccn3c-2c1C(=O)OC`, the IC50 is > 79 µM (inactive).

On to `O=C(C(=O)N(Cc1ccccc1)Cc1ccccc1)c1c(-c2ccccc2)[nH]c2ccccc12`, for which the IC50 was 0.33 µM.

For the molecule `COCCn1c(=NC(=O)c2nc3ccccc3s2)sc2cc(S(C)(=O)=O)ccc21`, the IC50 is 1.4 µM.

Regarding `CCn1cc(C(=O)Nc2cccc(NC(C)=O)c2)c2cc(OC)c(OC)cc2c1=O`, the IC50 was 16.1 µM (inactive).

`COc1cc(C(=O)Nc2cccc(-c3nnc(-c4ccco4)o3)c2)ccc1OC(C)=O`: the IC50 is > 79 µM (inactive).

Take `CC(C(=O)NC1CCCC1)N(C(=O)Cn1nnc(-c2ccc(F)cc2)n1)c1ccccc1F` (stereo not drawn): the IC50 was 1.68 µM.

As to `COC(=O)c1cc2ccc(OC)cc2c2cc(OC)c(OC)cc12`, the IC50 was > 79 µM (inactive).

Take `Fc1ccc(CSc2ccc3nnc(-c4cccnc4)n3n2)cc1`: the IC50 was 6.22 µM.

For `CCCCn1nc(NC(=O)c2cccs2)c2cc3cc(OC)ccc3nc21`, the IC50 was 3.61 µM.

On to `COc1ccc(Nc2nc(C(=O)N3CCc4cc(OC)c(OC)cc4C3)cs2)cc1`, for which the IC50 was 4.29 µM.

For `COc1cc(-c2cc(NC=O)c3ncc(-c4ccc(C(C)=O)cc4)n3c2)ccc1O`, the IC50 was 3.61 µM.

As to `CCCN1C(=O)c2cc(C(=O)Nc3cccc(C(C)=O)c3)ccc2C1Nc1cccc(C(C)=O)c1` (stereo not drawn), the IC50 is > 79 µM (inactive).

For `CCOc1cc(/C=C/c2ccc3cccc([N+](=O)[O-])c3n2)ccc1OCC(=O)N(C)C`, the IC50 is 9.02 µM.

For `COCCN1Cc2cccc(C(=O)Nc3cccc(-c4nc5ccccc5[nH]4)c3)c2C1=O`, the IC50 was 3.91 µM.

Turning to `CC(=O)Nc1cc(-c2ccc(C(=O)N3CCOCC3)cc2)cn2c(-c3ccc(C(C)=O)cc3)cnc12`, the IC50 was > 79 µM (inactive).

For `COc1ccccc1OCC(=O)N/N=C/c1cccc2cccnc12`, the IC50 is 14.1 µM (inactive).

With `COC(=O)c1[nH]c2ccccc2c1NC(=O)CNC1CCCCC1`, the IC50 was 8.49 µM.

With `CC(=O)Nc1cccc(NC(=O)c2cc(-c3cccnc3)nc3ccc(Br)cc23)c1`, the IC50 is 1.3 µM.

For the molecule `CC(C)c1ccccc1NC(=O)COC(=O)c1c2c(nc3ccccc13)CCN(Cc1ccccc1)C2`, the half-maximal inhibitory concentration (IC50) was 5.25 µM.

In the case of `CC(=O)c1cccc(-c2cnc3c(NC=O)cc(-c4ccccc4F)cn23)c1`, the IC50 was 7.66 µM.

As for `c1ccc(N2CCOCC2)c(Nc2nc3ccccc3n3cnnc23)c1`, the IC50 is 5.28 µM.

With `COc1cccc(C(=O)Nc2cc(C)c3c(=O)oc4ccccc4c3n2)c1`, the IC50 was 7.02 µM.

For `CCOc1ccc2nc(NC(=O)CN3CCC(n4nnc5cc(F)ccc54)CC3)sc2c1`, the IC50 is 2.37 µM.

In the case of `CCOC(=O)C(Cc1ccc(NC(=O)/C(=C/c2ccc(OC(C)=O)cc2)NC(C)=O)cc1)N1C(=O)c2ccccc2C1=O` (stereo not drawn), the IC50 is 2.78 µM.

For the molecule `Cc1[nH]c2ccccc2c1/C=N/NC(=O)c1cc(-c2cccs2)[nH]n1`, the IC50 is 3.62 µM.

As to `CC(C)OCCCNC(=O)CCC(=O)NNc1nc2ccccc2c2nc(-c3ccccc3)nn12`, the IC50 is 19.8 µM (inactive).

Take `O=C(Nc1cccc(NC(=O)c2ccc([N+](=O)[O-])o2)c1)c1ccco1`: the IC50 was 1.58 µM.

For `COc1ccc(CCCNC(=O)C2(C)Cc3c(-c4ccc(NC(C)=O)cc4)ccnc3O2)cc1` (stereo not drawn), the IC50 is > 79 µM (inactive).

With `COc1ccc(-c2cc(C(F)(F)F)n3nc(C(=O)N4CCN(C(=O)c5ccco5)CC4)cc3n2)cc1`, the IC50 is 9.56 µM.

On to `Cc1ccc(NC(=O)c2nc[nH]c2C(=O)NCCCCCCNC(=O)c2[nH]cnc2C(=O)Nc2ccc(C)cc2)cc1`, for which the IC50 is 3.93 µM.

With `O=C(c1cc(-c2cccnc2)nc2ccc(Br)cc12)N1CCN(c2ncccn2)CC1`, the IC50 was 3.6 µM.

For the molecule `Cc1ccc(C(C(=O)NCc2ccccc2)N(Cc2ccco2)C(=O)c2snc(C(N)=O)c2N)o1` (stereo not drawn), the IC50 is 1.8 µM.

With `COC(=O)c1ccc(C(NC(=O)OCc2ccccc2)/C(C)=C/[C@@H](C)C(=O)NCc2ccc(OC)c(OC)c2)cc1` (stereo partly drawn), the IC50 was > 79 µM (inactive).

`Cc1ccc(NC(=O)c2cc(-c3cccs3)nc3ccccc23)nc1`: the IC50 is 8.28 µM.

As for `O=C(COC(=O)c1ccccc1C(=O)OCC(=O)NCCc1c[nH]c2ccccc12)NCCc1c[nH]c2ccccc12`, the IC50 was 4.86 µM.

`CCOc1ccc(-n2cc(-c3ccccc3)c3c(N4CCOCC4)ncnc32)cc1`: the IC50 is 6.61 µM.

On to `C[C@H](CO)N1C[C@H](C)[C@@H](CN(C)C(=O)Nc2ccc3c(c2)OCO3)Oc2c(NC(=O)Nc3ccc(C(F)(F)F)cc3)cccc2C1=O`, for which the IC50 was 40.3 µM (inactive).

As for `CCN(CC)C(=O)c1ccc(-c2nnc(Nc3ccc(O)cc3)c3ccccc23)cc1`, the IC50 is 17.6 µM (inactive).

On to `COc1ccc(C(=O)COC(=O)C(CCCCN2C(=O)C3C4C=CC(C4)C3C2=O)N2C(=O)C3C4C=CC(C4)C3C2=O)cc1` (stereo not drawn), for which the IC50 is 4.84 µM.

As for `NC(=O)c1cc2ccccc2o/c1=N\NC(=O)c1ccc(F)cc1`, the IC50 is 4.67 µM.

Regarding `Cc1c(/C=N/NC(=O)c2ccc(O)cc2)c2ccccn2c1C(=O)c1ccc(F)cc1`, the IC50 was 5.2 µM.

Regarding `COc1ccc(CCn2c(=N)c(C(=O)NCC3CCCO3)cc3c(=O)n4cccc(C)c4nc32)cc1OC` (stereo not drawn), the IC50 was 2.6 µM.

For `COCCCN(Cc1ccco1)C(=O)Cn1ncc2c([nH]c3ccccc32)c1=O`, the IC50 is 10.9 µM (inactive).

As for `CC(=O)c1ccc(-c2cnc3c(NC=O)cc(-c4cccc(NS(C)(=O)=O)c4)cn23)cc1`, the IC50 is 8.18 µM.

Turning to `CCOc1ccccc1N1CC(O)=C(c2nc3ccccc3s2)C1=N`, the IC50 is > 79 µM (inactive).

Take `O=C(c1ccc(-c2nc3ccccc3s2)o1)N1CCN(c2ccccc2O)CC1`: the IC50 is 5.48 µM.

`COc1ccc(OC)c(Nc2nc(N)c([N+](=O)[O-])c(N3CCOCC3)n2)c1`: the IC50 was 11.8 µM (inactive).

Take `Cc1nc(N2CCN(c3ccccn3)CC2)c2c(C)c(C(=O)Nc3ccc(F)cc3)sc2n1`: the IC50 was 4.36 µM.

With `C[C@H](NC(=O)c1nc[nH]c1C(=O)NCC(=O)OCc1ccccc1)C(=O)OCc1ccccc1`, the IC50 was 26.2 µM (inactive).

For the molecule `Brc1cc2c(cc1/C=N/Nc1nc(N3CCCC3)nc(N3CCOCC3)n1)OCO2`, the IC50 was 8.27 µM.

For `COc1cc(/C=C/C(=O)Nc2ccc3nc4n(c(=O)c3c2)CCCC4)cc(OC)c1OC`, the IC50 was 13.3 µM (inactive).

Turning to `Cc1cc(N)n(-c2nc(-c3cccnc3)nc3ccccc23)n1`, the IC50 was 16.2 µM (inactive).

On to `CC(C)(C)NC(=O)c1cccc(NC(=O)c2ccc(NC(=O)c3ccco3)cc2)c1`, for which the IC50 is > 79 µM (inactive).

For `CC(=O)NCCNc1nc2c(-c3ccccc3)nnn2c2ccccc12`, the IC50 was 2.56 µM.

In the case of `COC(=O)c1ccc(OCC(=O)Nc2ccccc2C(=O)NC2CC2)cc1`, the IC50 is 22.6 µM (inactive).

Take `COc1ccc(CC(=O)N(Cc2ccccc2)c2ccccc2)cc1S(=O)(=O)N1CCOCC1`: the IC50 was 2.24 µM.

Consider `COc1ccc(OC)c(/C=N/NC(=O)c2cc3c(OC)c(OC)ccc3[nH]2)c1`, for which the IC50 is 3.48 µM.

As for `Cc1nc2c(c(=O)n1CCC1=CCCCC1)c1nc3ccccc3nc1n2/N=C/c1ccccc1`, the IC50 is 10.5 µM (inactive).

Take `COc1cc(/C=N/NC(=O)c2ccncc2)ccc1OC(=O)c1ccccc1Cl`: the IC50 was 5.67 µM.

Turning to `NC(=O)c1nsc(C(=O)N(c2ccccc2)C(C(=O)NC2CCCC2)c2ccc3ncccc3c2)c1N` (stereo not drawn), the IC50 was 3.35 µM.

Take `COc1cc(-c2cc(NC(C)=O)c3ncc(-c4ccc(C(C)=O)cc4)n3c2)cc(OC)c1OC`: the IC50 was 6.06 µM.

With `CNC(=O)COC(=O)/C=C/c1cn(-c2ccccc2)nc1-c1ccc(C)o1`, the IC50 was 6.31 µM.

Regarding `COc1ccc(-n2c(/C=C/c3ccc(O)c(OC)c3)nc3ccccc3c2=O)cc1`, the IC50 is 1.58 µM.

Consider `O=C(c1cc(=O)[nH]c2ccccc12)N1CCN(S(=O)(=O)c2ccc3ccccc3c2)CC1`, for which the IC50 was 2.89 µM.

Take `CCN(C[C@H]1N[C@@](C)(C(=O)OC)[C@H]2C(=O)N(Cc3ccccc3)C(=O)[C@@H]12)C(=O)c1ccc(C(C)(C)C)cc1`: the half-inhibitory concentration (IC50) was 6.25 µM.

`CCN1C(=O)/C(=C/c2nc3ccccc3c(=O)[nH]2)c2ccccc21`: the half-inhibitory concentration (IC50) is 7.84 µM.

On to `CC(=O)c1ccc(N2CCN(C(=O)c3cc(-c4cccnc4)nc4ccc(Br)cc34)CC2)cc1`, for which the IC50 is 3.78 µM.

With `COCCn1nnnc1CN(CCc1ccccc1)Cc1cc2cc(OC)ccc2[nH]c1=O`, the IC50 is 5.12 µM.

With `COc1cc(NC(=O)c2ccco2)c(OC)cc1NC(=O)c1cc(OC)c(OC)c(OC)c1`, the IC50 is 11.3 µM (inactive).

For the molecule `N#C/C(=C\c1ccc(-c2cccc([N+](=O)[O-])c2)o1)C(=O)NCCN1CCOCC1`, the IC50 was > 79 µM (inactive).

Turning to `COc1ccc(C(=O)COC(=O)Cn2[nH]c(=O)c3ccccc3c2=O)c(OC)c1`, the IC50 is 27.2 µM (inactive).

With `COc1ccc2oc(C(=O)Nc3ccc(N4CCOCC4)cc3)c(C)c2c1`, the IC50 was > 79 µM (inactive).

As to `COc1cc(/C=N/n2nnnc2Nc2ccccc2)cc(OC)c1OC`, the IC50 is 9.53 µM.

As for `S=C(Nc1ccc(N2CCOCC2)cc1)Nc1ccc2nc(-c3ccco3)c(-c3ccco3)nc2c1`, the IC50 is 10.7 µM (inactive).

Turning to `COc1cc(/C=N/NC(=O)c2cccnc2)ccc1OS(=O)(=O)c1cc(C)ccc1C`, the IC50 was > 79 µM (inactive).

With `CC(=O)c1cccc(NC(=O)Nc2ccc3c(c2)N(C)C(=O)CS3)c1`, the IC50 was 3.53 µM.
